# Assay results from patent US7772271B2 (priority 2004, dated 2010).
row,SMILES,melting point
1,CC(C)NC(=O)Nc1ccc(-c2c(C#N)c3ccc(OCCS(C)(=O)=O)cc3n2C2CCC2)cc1 [Compound 2873],170 to 180 °C
2,N#Cc1c(-c2ccc(NC(=O)NC3CCC3)cc2)n(CC2CC2)c2cc(N3CCOCC3)ccc12 [Compound 2876],170 to 230 °C
3,N#Cc1c(-c2ccc(NS(=O)(=O)C3CC3)cc2)n(C2CC2)c2cc(N3CCOCC3)ccc12 [Compound 2877],241 to 243 °C
4,CCOc1ccc2c(C#N)c(-c3ccc(NC(=O)O[C@H](C)C(F)(F)F)cc3)n(C3CCC3)c2c1 [Compound 2878],196 to 199 °C
5,C[C@@H](OC(=O)Nc1ccc(-c2c(C#N)c3ccc(OCCF)cc3n2C2CCC2)cc1)C(F)(F)F [Compound 2879],198 to 200 °C
6,C[C@@H](OC(=O)Nc1ccc(-c2c(C#N)c3ccc(OC(F)F)cc3n2C2CCC2)cc1)C(F)(F)F [Compound 2880],161 to 162 °C
7,CCn1ccnc1COc1ccc2c(C#N)c(-c3ccc(NC(=O)OC(C)C)cc3)n(C3CCC3)c2c1 [Compound 2881],197 to 203 °C
8,CC(C)NC(=O)Nc1ccc(-c2c(C#N)c3ccc(OC4COCOC4)cc3n2C2CCC2)cc1 [Compound 2882],210 to 212 °C
9,C[C@@H](OC(=O)Nc1ccc(-c2c(C#N)c3ccc(OC4COCOC4)cc3n2C2CCC2)cc1)C(F)(F)F [Compound 2885],189 to 190 °C
10,Cc1cc(-c2c(C#N)c3ccc(OC4CCOCC4)cc3n2C2CCC2)ccc1NC(=O)OC(C)C [Compound 2889],129 to 130 °C
11,CCCS(=O)(=O)Nc1ccc(-c2c(C#N)c3ccc(N4CCOCC4)cc3n2CC2CC2)cc1 [Compound 2890],186 to 189 °C
12,CC(C)OC(=O)Nc1ccc(-c2c(C#N)c3ccc(N4CCOCC4)cc3n2CC2CC2)cc1 [Compound 2891],170 to 180 °C
13,CC(C)OC(=O)Nc1ccc(-c2c(C#N)c3ccc(N4CCCCC4)cc3n2CC2CC2)cc1 [Compound 2892],145 to 148 °C
14,CC(C)OC(=O)Nc1ccc(-c2c(C#N)c3ccc(OC4COCOC4)cc3n2C2CCC2)cc1 [Compound 2894],208 to 210 °C
15,CS(=O)(=O)Nc1ccc(-c2c(C#N)c3ccc(C(=O)N4CCOCC4)cc3n2C2CCC2)cc1 [Compound 2897],247 to 249 °C
16,CCS(=O)(=O)Nc1ccc(-c2c(C#N)c3ccc(C(=O)N4CCOCC4)cc3n2C2CCC2)cc1 [Compound 2898],220 to 222 °C
17,CC(C)S(=O)(=O)Nc1ccc(-c2c(C#N)c3ccc(C(=O)N4CCOCC4)cc3n2C2CCC2)cc1 [Compound 2899],169 to 171 °C
18,N#Cc1c(-c2ccc(NS(=O)(=O)C3CCC3)cc2)n(C2CCC2)c2cc(C(=O)N3CCOCC3)ccc12 [Compound 2900],198 to 200 °C
19,CC(C)CS(=O)(=O)Nc1ccc(-c2c(C#N)c3ccc(C(=O)N4CCOCC4)cc3n2C2CCC2)cc1 [Compound 2901],210 to 212 °C
20,CCCS(=O)(=O)Nc1ccc(-c2c(C#N)c3ccc(Oc4nccc(C)n4)cc3n2C2CCC2)cc1 [Compound 2902],223 to 227 °C
21,Cc1ccnc(Oc2ccc3c(C#N)c(-c4ccc(NS(=O)(=O)C5CC5)cc4)n(C4CCC4)c3c2)n1 [Compound 2903],172 to 174 °C
22,COc1ccnc(Oc2ccc3c(C#N)c(-c4ccc(NS(=O)(=O)CC(C)C)cc4)n(C4CCC4)c3c2)n1 [Compound 2904],182 to 186 °C

row,SMILES,melting point
1,C[C@@H](OC(=O)Nc1ccc(-c2c(C#N)c3ccc(N4CCCCC4)cc3n2CC2CC2)cc1)C1CC1 [Compound 2907],127 to 132 °C
2,N#Cc1c(-c2ccc(NS(=O)(=O)C3CC3)cc2)n(CC2CC2)c2cc(N3CCCCC3)ccc12 [Compound 2908],191 to 194 °C
3,Cc1nccnc1Oc1ccc2c(C#N)c(-c3ccc(NC(=O)O[C@H](C)C4CC4)cc3)n(C3CCC3)c2c1 [Compound 2909],201 to 202 °C
4,C[C@@H](OC(=O)Nc1ccc(-c2c(C#N)c3ccc(OC4CCOCC4)cc3n2C2CC2)cc1)C(F)(F)F [Compound 2910],162 to 164 °C
5,CS(=O)(=O)Nc1ccc(-c2c(C#N)c3ccc(OC4CCOCC4)cc3n2C2CC2)cc1 [Compound 2911],205 to 207 °C
6,CCS(=O)(=O)Nc1ccc(-c2c(C#N)c3ccc(OC4CCOCC4)cc3n2C2CC2)cc1 [Compound 2912],212 to 214 °C
7,Cc1ccnc(Oc2ccc3c(C#N)c(-c4ccc(NC(=O)O[C@H](C)C5CC5)cc4)n(C4CCC4)c3c2)n1 [Compound 2913],172 to 174 °C
8,N#Cc1c(-c2ccc(N3CCCS3(=O)=O)cc2)n(C2CCC2)c2cc(N3CCOCC3)ccc12 [Compound 2914],290 to 292 °C
9,CS(=O)(=O)Nc1ccc(-c2c(C#N)c3ccc(N4CCOCC4)cc3n2C2CCC2)cc1 [Compound 2915],269 to 271 °C
10,CC(C)CS(=O)(=O)Nc1ccc(-c2c(C#N)c3ccc(OC4COCOC4)cc3n2C2CCC2)cc1 [Compound 2917],175 to 177 °C
11,N#Cc1c(-c2ccc(NS(=O)(=O)C3CCCC3)cc2)n(C2CCC2)c2cc(OC3COCOC3)ccc12 [Compound 2918],195 to 196 °C
12,N#Cc1c(-c2ccc(NS(=O)(=O)C3CCC3)cc2)n(C2CCC2)c2cc(OC3COCOC3)ccc12 [Compound 2919],200 to 204 °C
13,CC(C)S(=O)(=O)Nc1ccc(-c2c(C#N)c3ccc(OC4COCOC4)cc3n2C2CCC2)cc1 [Compound 2920],196 to 198 °C
14,N#Cc1c(-c2ccc(N3CCCS3(=O)=O)cc2)n(CC2CC2)c2cc(N3CCOCC3)ccc12 [Compound 2921],241 to 245 °C
15,CCc1cnc(Oc2ccc3c(C#N)c(-c4ccc(NC(=O)O[C@H](C)C5CC5)cc4)n(C4CCC4)c3c2)nc1 [Compound 2923],158 to 160 °C
16,C[C@@H](OC(=O)Nc1ccc(-c2c(C#N)c3ccc(Oc4nccc(C(F)(F)F)n4)cc3n2C2CCC2)cc1)C1CC1 [Compound 2924],119 to 121 °C
17,CCn1c(-c2ccc(N3CCCS3(=O)=O)cc2)c(C#N)c2ccc(N3CCOCC3)cc21 [Compound 2926],247 to 248 °C
18,N#Cc1c(-c2ccc(N3CCCS3(=O)=O)cc2)n(C2CC2)c2cc(N3CCOCC3)ccc12 [Compound 2927],260 to 265 °C
19,N#Cc1c(-c2ccc(NS(=O)(=O)C3CC3)cc2)n(C2CCC2)c2cc(OC3COCOC3)ccc12 [Compound 2928],216 to 217 °C
20,CCn1c(-c2ccc(NC(=O)O[C@H](C)C(F)(F)F)cc2)c(C#N)c2ccc(Oc3ncccn3)cc21 [Compound 2929],221 to 223 °C
21,CCCS(=O)(=O)Nc1ccc(-c2c(C#N)c3ccc(Oc4nccnc4Cl)cc3n2C2CCC2)cc1 [Compound 2930],227 to 229 °C
22,CCCS(=O)(=O)Nc1ccc(-c2c(C#N)c3ccc(Oc4nccnc4C)cc3n2C2CCC2)cc1 [Compound 2931],227 to 230 °C

row,SMILES,melting point
1,CCCS(=O)(=O)Nc1ccc(-c2c(C#N)c3ccc(-c4c(C)noc4C)cc3n2C2CCC2)cc1 [Compound 2932],224 to 225 °C
2,C[C@@H](OC(=O)Nc1ccc(-c2c(C#N)c3ccc(N4CCOCC4)cc3n2CC2CC2)cc1)C1CC1 [Compound 2933],167 to 173 °C
3,CC(C)OC(=O)Nc1ccc(-c2c(C#N)c3ccc(N4CCOCC4)cc3n2C(C)C)cc1 [Compound 2934],192 to 195 °C
4,CCCS(=O)(=O)Nc1ccc(-c2c(C#N)c3ccc(Oc4ncccc4C(F)(F)F)cc3n2C2CC2)cc1 [Compound 2935],216 to 217 °C
5,CCCS(=O)(=O)Nc1ccc(-c2c(C#N)c3ccc(Oc4cccnc4Cl)cc3n2C2CC2)cc1 [Compound 2936],209 to 210 °C
6,CCCS(=O)(=O)Nc1ccc(-c2c(C#N)c3ccc(Oc4nccnc4Cl)cc3n2C2CC2)cc1 [Compound 2937],183 to 184 °C
7,CCCS(=O)(=O)Nc1ccc(-c2c(C#N)c3ccc(Oc4nccnc4C)cc3n2C2CC2)cc1 [Compound 2938],191 to 193 °C
8,CCCS(=O)(=O)Nc1ccc(-c2c(C#N)c3ccc(Oc4nccc(C)n4)cc3n2C2CC2)cc1 [Compound 2939],239 to 241 °C
9,CCn1c(-c2ccc(N3CCCS3(=O)=O)cc2)c(C#N)c2ccc(OC3CCOCC3)cc21 [Compound 2940],222 to 227 °C
10,N#Cc1c(-c2ccc(N3CCCS3(=O)=O)cc2)n(C2CC2)c2cc(OC3CCOCC3)ccc12 [Compound 2941],219 to 224 °C
11,CC(C)n1c(-c2ccc(NC(=O)O[C@H](C)C3CC3)cc2)c(C#N)c2ccc(N3CCOCC3)cc21 [Compound 2942],191 to 193 °C
12,CCCS(=O)(=O)Nc1ccc(-c2c(C#N)c3ccc(Oc4ncccc4Cl)cc3n2C2CC2)cc1 [Compound 2943],215 to 217 °C
13,CCCS(=O)(=O)Nc1ccc(-c2c(C#N)c3ccc(Oc4cccnc4Cl)cc3n2C2CCC2)cc1 [Compound 2945],173 to 175 °C
14,CC(C)NS(=O)(=O)Nc1ccc(-c2c(C#N)c3ccc(Oc4nccnc4Cl)cc3n2C2CCC2)cc1 [Compound 2946],144 to 146 °C
15,CC(C)NS(=O)(=O)Nc1ccc(-c2c(C#N)c3ccc(Oc4nccnc4Cl)cc3n2C2CC2)cc1 [Compound 2947],130 °C (dec.)
16,N#Cc1c(-c2ccc(NS(=O)(=O)NCC3CC3)cc2)n(C2CCC2)c2cc(Oc3nccnc3Cl)ccc12 [Compound 2948],206 to 208 °C
17,N#Cc1c(-c2ccc(NS(=O)(=O)NCC3CC3)cc2)n(C2CC2)c2cc(Oc3nccnc3Cl)ccc12 [Compound 2949],181 to 183 °C
18,CC(C)Nc1ccc(-c2c(C#N)c3ccc(Oc4ncccc4Cl)cc3n2C2CC2)cc1 [Compound 2951],196 to 197 °C
19,CC(C)n1c(-c2ccc(NC(=O)O[C@H](C)C(F)(F)F)cc2)c(C#N)c2ccc(N3CCOCC3)cc21 [Compound 2952],148 to 150 °C
20,CC(C)n1c(-c2ccc(NC(=O)O[C@H](C)c3ccc(F)cc3)cc2)c(C#N)c2ccc(N3CCOCC3)cc21 [Compound 2953],231 to 234 °C
21,CC(C)OC(=O)Nc1ccc(-c2c(C#N)c3ccc(N4CCCC4)cc3n2C2CCC2)cc1 [Compound 2954],241 to 244 °C
